Measured values as given in patent publication US20200023073A1, “A NEW DRUG DELIVERY SYSTEM FOR TREATMENT OF DISEASE” (SINTEF TTO AS, priority 2016, published 2020).

Test system: MDA-MB-231 cells
Assay: AlamarBlue Cell Viability Assay
Assay type: cell-based, human
Conditions: MDA-MB-231, various concentrations, 24, 48 and 72 hours
Method: The cytotoxic effect of empty PBCA NPs, PBCA NPs with encapsulated cabazitaxel as well as free cabazitaxel was studied on breast cancer cells (MDA-MB-231 cells=human epithelial, mammary adenocarcinoma cell line). AlamarBlueR Cell Viability Assay was used to evaluate cell viability. Cells were seeded in density 5000 cells/200 μl medium for each well. After 3 days old medium was removed from wells and both encapsulated cabazitaxel and free cabazitaxel was diluted in medium and added to the well. Concentration of NPs was ranged from 0.1 ng/ml to 1000 ng/ml. Concentrations of free cabazitaxel was chosen to match the concentrations of cabazitaxel in NPs. Control wells contained cells in growth medium.
The well plates were incubated for 24, 48 and 72 hours at 37° C. and 5% CO2, before the medium was removed from the well followed by 3 times washing with fresh growth medium. Growth medium containing 10% of alamar Blue assay was added into each well and the plates incubated for another 3 hours at 37° C. and 5% CO2, and the fluorescence intensity measured by microplate reader (excitation/emission at 550/590 nm).

## CO[C@H]1C(=O)[C@]2(C)[C@@H](OC)C[C@H]3OC[C@@]3(OC(C)=O)[C@H]2[C@H](OC(=O)c2ccccc2)[C@]2(O)C[C@H](OC(=O)[C@H](O)[C@@H](NC(=O)OC(C)(C)C)c3ccccc3)C(C)=C1C2(C)C [free cabazitaxel, cabazitaxel]
  response of cell viability to treatment: dose-responsive manner
